These results are taken from paper PMC8699473, “An Easily Expandable Multi-Drug LC-MS Assay for the Simultaneous Quantification of 57 Oral Antitumor Drugs in Human Plasma” (Cancers, 2021).

Details of data set [1]: method as in supplement references [1-55] as printed per drug. The settings on record: minimum steady-state blood plasma concentration after multiple dose administration; ref supplement references [1-55] per drug; cited from earlier work.
The nature of data set [2]: Short-term stability in spiked pooled human plasma (bench-top, 4 °C, 56 °C).

As to `COc1cc(N2CCC(N3CCN(C)CC3)CC2)ccc1Nc1ncc(Cl)c(Nc2ccccc2P(C)(C)=O)n1` [Brigatinib], in data set [1], the “cmin” value is listed as 520 ng/mL. Besides, in data set [2] (validation standard 2xLLOV), the “Short-time stability (1h, 56°C) Accuracy [%]” value was found to be 18.2%; the “Short-time stability (24h, 4°C, without daylight) Accuracy [%]” value was determined as 102.8%; the “Short-time stability (24h, RT, with daylight) Accuracy [%]” value came to 76.4%; the “Short-time stability (24h, RT, without daylight) Accuracy [%]” value came out at 74.1%. In data set [2] (validation standard LLOV), the “Short-time stability (1h, 56°C) Accuracy [%]” value was 7.8%; the “Short-time stability (24h, 4°C, without daylight) Accuracy [%]” value worked out at 95.0%; the “Short-time stability (24h, RT, with daylight) Accuracy [%]” value was determined as 55.6%; the “Short-time stability (24h, RT, without daylight) Accuracy [%]” value was found to be 55.1%. Further, in data set [2] (validation standard MOV), the “Short-time stability (1h, 56°C) Accuracy [%]” value worked out at 38.5%; the “Short-time stability (24h, 4°C, without daylight) Accuracy [%]” value is 104.2%; the “Short-time stability (24h, RT, with daylight) Accuracy [%]” value stood at 85.3%; the “Short-time stability (24h, RT, without daylight) Accuracy [%]” value is reported as 93.4%. Besides, in data set [2] (validation standard ULOV), the “Short-time stability (1h, 56°C) Accuracy [%]” value was determined as 35.7%; the “Short-time stability (24h, 4°C, without daylight) Accuracy [%]” value is on record as 93.7%; the “Short-time stability (24h, RT, with daylight) Accuracy [%]” value was 91.3%; the “Short-time stability (24h, RT, without daylight) Accuracy [%]” value is listed as 90.3%.

As to `COc1cc2nccc(Oc3ccc(NC(=O)C4(C(=O)Nc5ccc(F)cc5)CC4)cc3)c2cc1OC` [Cabozantinib], the “cmin” value in data set [1] is listed as 1380 ng/mL. Further, the “Short-time stability (1h, 56°C) Accuracy [%]” value in data set [2] (validation standard 2xLLOV) was found to be 49.1%; in data set [2] (validation standard LLOV), 30.2%; in data set [2] (validation standard MOV) it was 51.8%; in data set [2] (validation standard ULOV), 44.1%. Besides, the “Short-time stability (24h, 4°C, without daylight) Accuracy [%]” value was found to be 101.8% in data set [2] (validation standard 2xLLOV), 98.5% in data set [2] (validation standard LLOV), 102.2% in data set [2] (validation standard MOV) and 96.1% in data set [2] (validation standard ULOV). For the same compound, the figures for the “Short-time stability (24h, RT, with daylight) Accuracy [%]” value in data set [2] (validation standard 2xLLOV), in data set [2] (validation standard LLOV) and in data set [2] (validation standard MOV) were 103.6%, 91.8% and 104.9%, respectively.

For `Cc1cc(Nc2ncc(Cl)c(Nc3ccccc3S(=O)(=O)C(C)C)n2)c(OC(C)C)cc1C1CCNCC1` [Ceritinib], in data set [1], the “cmin” value was 871 ng/mL. In data set [2] (validation standard 2xLLOV), the “Short-time stability (1h, 56°C) Accuracy [%]” value came out at 39.7%; the “Short-time stability (24h, 4°C, without daylight) Accuracy [%]” value came out at 95.5%; the “Short-time stability (24h, RT, with daylight) Accuracy [%]” value is reported as 66.9%; the “Short-time stability (24h, RT, without daylight) Accuracy [%]” value amounted to 72.2%. Also, in data set [2] (validation standard LLOV), the “Short-time stability (1h, 56°C) Accuracy [%]” value stood at 42.5%; the “Short-time stability (24h, 4°C, without daylight) Accuracy [%]” value turned out to be 102.1%; the “Short-time stability (24h, RT, with daylight) Accuracy [%]” value is recorded as 70.9%; the “Short-time stability (24h, RT, without daylight) Accuracy [%]” value turned out to be 77.7%. In data set [2] (validation standard MOV), the “Short-time stability (1h, 56°C) Accuracy [%]” value stood at 34.6%; the “Short-time stability (24h, 4°C, without daylight) Accuracy [%]” value stood at 93.9%; the “Short-time stability (24h, RT, with daylight) Accuracy [%]” value was found to be 84.1%; the “Short-time stability (24h, RT, without daylight) Accuracy [%]” value is recorded as 92.2%. Also, in data set [2] (validation standard ULOV), the “Short-time stability (1h, 56°C) Accuracy [%]” value is 32.0%; the “Short-time stability (24h, 4°C, without daylight) Accuracy [%]” value is 92.7%; the “Short-time stability (24h, RT, with daylight) Accuracy [%]” value is 91.8%; the “Short-time stability (24h, RT, without daylight) Accuracy [%]” value worked out at 96.2%.

For `O=C(c1ccc(F)c(F)c1Nc1ccc(I)cc1F)N1CC(O)([C@@H]2CCCCN2)C1` [Cobimetinib], the “cmin” value in data set [1] is listed as 127 ng/mL. In data set [2] (validation standard 2xLLOV), the “Short-time stability (1h, 56°C) Accuracy [%]” value was determined as 51.4%; the “Short-time stability (24h, 4°C, without daylight) Accuracy [%]” value was 100.9%; the “Short-time stability (24h, RT, with daylight) Accuracy [%]” value was determined as 98.3%; the “Short-time stability (24h, RT, without daylight) Accuracy [%]” value is on record as 98.8%. Also, in data set [2] (validation standard LLOV), the “Short-time stability (1h, 56°C) Accuracy [%]” value is given as 42.7%; the “Short-time stability (24h, 4°C, without daylight) Accuracy [%]” value is given as 99.9%; the “Short-time stability (24h, RT, with daylight) Accuracy [%]” value is reported as 98.6%; the “Short-time stability (24h, RT, without daylight) Accuracy [%]” value was determined as 99.8%. Moreover, in data set [2] (validation standard MOV), the “Short-time stability (1h, 56°C) Accuracy [%]” value is 47.6%; the “Short-time stability (24h, 4°C, without daylight) Accuracy [%]” value is 102.5%; the “Short-time stability (24h, RT, with daylight) Accuracy [%]” value came out at 102.4%; the “Short-time stability (24h, RT, without daylight) Accuracy [%]” value is reported as 103.8%. Also, in data set [2] (validation standard ULOV), the “Short-time stability (1h, 56°C) Accuracy [%]” value was 41.3%; the “Short-time stability (24h, 4°C, without daylight) Accuracy [%]” value stood at 97.5%; the “Short-time stability (24h, RT, with daylight) Accuracy [%]” value turned out to be 103.8%; the “Short-time stability (24h, RT, without daylight) Accuracy [%]” value worked out at 100.3%.

On to `C[C@@H](Oc1cc(-c2cnn(C3CCNCC3)c2)cnc1N)c1c(Cl)ccc(F)c1Cl` [Crizotinib], for which the “cmin” value in data set [1] is reported as 274 ng/mL. In addition, the “Short-time stability (24h, RT, with daylight) Accuracy [%]” value in data set [2] (validation standard 2xLLOV) turned out to be 85.9%; in data set [2] (validation standard LLOV) it was 62.9%; in data set [2] (validation standard MOV) it was 95.3%; in data set [2] (validation standard ULOV), 85.2%. Besides, the “Short-time stability (24h, RT, without daylight) Accuracy [%]” value in data set [2] (validation standard 2xLLOV) was determined as 92.4%; in data set [2] (validation standard LLOV), 71.2%; in data set [2] (validation standard MOV), 99.8%; in data set [2] (validation standard ULOV), 89.5%.
